Measured values published in patent publication US20030013660A1, “Dioxolane analogs for improved inter-cellular delivery” (Shire BioChem Inc., priority 2000, published 2003).
“And” between values parts separate entries of the source, which are not always exact repeats. Equal entries are not always repeated.

Tests used:
H-460 [1] = test: MTT assay at 72 hr (24 hr drug exposure, wash, 48 hr); assay type: cell-based; conditions: Homo sapiens, NCI-H460, read-out: IC50 H-460 24 h, MTT at 72 hr, 24 h exposure, single experiment
Procedure: (§1) Exposition of 24hr to drug, washed, and incubated for another 48hr (total of 72hr assay)

MCF-7 [2] = test: as above; assay type: cell-based; conditions: Homo sapiens, MCF7, read-out: IC50 MCF-7 24 h, MTT at 72 hr, 24 h exposure, single experiment
Procedure: as §1

SF-268 [3] = test: as above; assay type: cell-based; conditions: Homo sapiens
Procedure: as §1

CCRF-CEM = test: MTT or WST-1 assay at 72 hr (24 hr drug exposure, wash, 48 hr); assay type: cell-based; conditions: Homo sapiens, CCRF-CEM, read-out: IC50 CCRF-CEM 24 h, MMT or WST-1 at 72 hr, 24 h exposure, single experiment
Procedure: as §1

CEM/dCK- [4] = test: as above; assay type: cell-based; conditions: for Resistance Factor*: CEM/dCK- versus CCRF-CEM, single experiment; for IC50: read-out: IC50 CEM/dCK- 24 h, MMT or WST-1 at 72 hr, 24 h exposure, single experiment
Procedure: as §1

H-460 [5] = test: 3H-TdR incorporation at 72 hr (24 hr drug exposure, wash, 48 hr); assay type: cell-based, Human; conditions: Homo sapiens, NCI-H460, read-out: IC50 in μM (3H-TdR incorporation at 72 hr) H-460 24 h, H-460 Human Lung Carcinoma, 72 hr assay
Procedure: (§2) Exposition of 24 hr to drug, wash, incubated for another 48 hr (total of 72 hr assay)
(§3) (3H-Thymidine Incorporation Assay)

MCF-7 [6] = test: as above; assay type: cell-based, Human; conditions: Homo sapiens, MCF7, read-out: IC50 in μM (3H-TdR incorporation at 72 hr) MCF-7 24 h, MCF-7 Human Breast Carcinoma, 72 hr assay
Procedure: as §2, §3

SF-268 [7] = test: as above; assay type: cell-based, Human; conditions: Homo sapiens, SF-268, read-out: IC50 in μM (3H-TdR incorporation at 72 hr) SF-268 24 h, SF-268 Human Central Nervous System Tumor; 24 h drug exposure, 72 hr assay
Procedure: as §2, §3

CEM/dCK- [8] = test: as above; assay type: cell-based; conditions: Homo sapiens, CCRF-CEM, read-out: IC50 in μM (3H-TdR incorporation at 72 hr) CEM/dCK- 24 h, CCRF-CEM deoxycytidine kinase-deficient; 24 h drug exposure, 72 hr assay
Procedure: as §2, §3

H-460 [9] = test: 3H-TdR (3H-thymidine) incorporation assay at 72 hr; assay type: cell-based, Human
MCF-7 [10] = test: 3H-TdR (3H-thymidine) incorporation assay at 72 hr; assay type: cell-based, Human; conditions: 3H-TdR incorporation at 72 hr
SF-268 [11] = test: 3H-TdR (3H-thymidine) incorporation assay at 72 hr; assay type: cell-based, Human
CEM/dCK- [12] = test: 3H-TdR (3H-thymidine) incorporation assay at 72 hr; assay type: cell-based; conditions: Homo sapiens, CCRF-CEM, read-out: IC50 CEM/dCK- 24 h, 24 h drug exposure, wash, another 48 hr; deoxycytidine kinase-deficient CCRF-CEM
Procedure: Table of IC50 Values (μM) for Controls
as §2, §3

CEM cells = test: CellTiter 96 cell proliferation assay (chemosensitivity), 48 h; assay type: cell-based
Procedure: The chemosensitivity of suspension cells lines (e.g., CEM or CEM-derivatives) is assessed using the CellTiter 96 ? proliferation assay. […] Adherent cell lines (e.g., DU145 or DU145^R) are seeded (^˜10^5 cells) in triplicate dishes, 24 h before drug exposure. Growth inhibition is determined by trypsinization and counting cells electronically.

[13] = SF-268, read-out: IC50 SF-268 24 h, MTT at 72 hr, 24 h exposure, single experiment
[14] = read-out: IC50 H-460 24 h, 24 h drug exposure, wash, another 48 hr, 3H-TdR incorporation at 72 hr

Row | IC50 (MCF-7 [2]) | IC50 (CCRF-CEM) | Compound | IC50 (H-460 [1]) | IC50 (SF-268 [3]; [13]) | Resistance Factor* (CEM/dCK- [4]) | IC50 (CEM/dCK- [4]) | IC50 (H-460 [9]; [14]) | further results
1 | 3.9 nM | 360 nM | CCCCC/C=C\C/C=C\CCCCCCCC(=O)Nc1ccn([C@@H]2CO[C@H](CO)O2)c(=O)n1 [Compound 217, OCTADECA-9,12-DIENOIC ACID [1-(2- HYDROXYMETHYL- [1,3]DIOXOLAN-4-YL)-2- OXO-1,2-DIHYDRO- PYRIMIDIN-4-YL]-AMIDE] | 11 nM | 120 nM | 75 | 27000 nM | – | IC50 (H-460 [5]): ≤ 0.0001 µM; IC50 (MCF-7 [6]): ≤ 0.0001 µM; IC50 (SF-268 [7]): 0.00013 µM; IC50 (CEM/dCK- [8]): 1.2 µM
2 | 34000 nM | 2900 nM | CC(C)C[C@H](NC(=O)OCc1ccccc1)C(=O)N[C@@H](C)C(=O)N[C@@H](CC(C)C)C(=O)Nc1ccn([C@@H]2CO[C@H](CO)O2)c(=O)n1 [Compound 267, [1-(1-{1-[1-(2- HYDROXYMETHYL- [1,3]DIOXOLAN-4-YL)-2- OXO-1,2-DIHYDRO- PYRIMIDIN-4- YLCARBAMOYL]-3-METHYL- BUTYLCARBAMOYL}- ETHYLCARBAMOYL)-3- METHYL-BUTYL]-CARBAMIC ACID BENZYL ESTER] | 93000 nM | > 10000 nM | >3 | > 10000 nM | – | –
3 | 320 nM | 480 nM | CC(C)CCCCC(=O)Nc1ccn([C@@H]2CO[C@H](CO)O2)c(=O)n1 [Compound 277, 6-METHYL-HEPTANOIC ACID [1-(2-HYDROXYMETHYL- [1,3]DIOXOLAN-4-YL)-2- OXO-1,2-DIHYDRO- PYRIMIDIN-4-YL]-AMIDE] | 2000 nM | 7300 nM | >208 | > 100000 nM | 290 nM | IC50 (H-460 [9]; Homo sapiens, NCI-H460, read-out: IC50 H-460 24 h, 24 h drug exposure, wash, another 48 hr, 3H-TdR incorporation at 72 hr): 200 nM; IC50 (MCF-7 [10]; Homo sapiens, MCF7, read-out: IC50 MCF-7 24 h, 24 h drug exposure, wash, another 48 hr): 13 nM; IC50 (MCF-7 [10]; read-out: IC50 MCF-7 24 h, 24 h drug exposure, wash, another 48 hr): 16 nM; IC50 (SF-268 [11]; Homo sapiens, SF-268, read-out: IC50 SF-268 24 h, 24 h drug exposure, wash, another 48 hr, 3H-TdR incorporation at 72 hr): 210 nM; IC50 (SF-268 [11]; read-out: IC50 SF-268 24 h, 24 h drug exposure, wash, another 48 hr, 3H-TdR incorporation at 72 hr): 190 nM; IC50 (CEM/dCK- [12]): > 100000 nM
4 | – | – | Nc1ccn([C@@H]2O[C@H](CO)[C@@H](O)[C@@H]2O)c(=O)n1 [Cytarabine, cytarabine, reference compound] | – | – | – | – | 13 nM and 99 nM | EC50 (CEM cells; Homo sapiens, CCRF-CEM, 48 h, read-out: EC50 (50% of the dose response curve)): 10 nM; effect of the es transport inhibitor NBMPR on resistance of CEM cells (CEM cells; presence of NBMPR): increased resistance; IC50 (SF-268 [3]; SF-268, read-out: IC50 SF-268 24 h, Average, MTT at 72 hr, Average of the experiments): 25000 ± 23000 nM; IC50 (H-460 [9]; Homo sapiens, NCI-H460, 24 h, read-out: IC50 H-460 24 h, Average, Average ± spread of the repeat determinations, 24 h exposure): 52 nM; IC50 (SF-268 [11]; Homo sapiens, SF-268, 24 h, read-out: IC50 SF-268 24 h, Average, Average ± spread of the repeat determinations, 24 h exposure): 940 nM; IC50 (SF-268 [11]; read-out: IC50 SF-268 24 h, 24 h drug exposure, wash, another 48 hr, 3H-TdR incorporation at 72 hr, listed as Cytosine Arabinoside): 300 nM

Row | Compound | IC50 (MCF-7 [2]) | IC50 (CCRF-CEM) | IC50 (H-460 [1]) | IC50 (SF-268 [3]; [13]) | Resistance Factor* (CEM/dCK- [4]) | IC50 (CEM/dCK- [4]) | IC50 (H-460 [9]; [14]) | further results
5 | CC(C)C[C@H](NC(=O)[C@H](C)N)C(=O)Nc1ccn([C@@H]2CO[C@H](CO)O2)c(=O)n1.O=C(O)C(F)(F)F.O=C(O)C(F)(F)F [Compound 265, 2-(2-AMINO- PROPIONYLAMINO)-4- METHYL-PENTANOIC ACID [1-(2-HYDROXYMETHYL- [1,3]DIOXOLAN-4-YL)-2- OXO-1,2-DIHYDRO- PYRIMIDIN-4-YL]-AMIDE, BIS TRIFLUOROACETIC ACID SALT] | 77000 nM | 30000 nM | > 100000 nM | > 100000 nM | >3 | > 100000 nM | – | –
